Laboratory results as given in patent US20260317304A1, “TEAD INHIBITORS AND METHODS OF USE” (Sporos BioDiscovery, Inc., priority 2022, published 2026).

Columns and labels:
Format in all cases: cell-based
Mero14 cells = test: Mero14 proliferation and cell viability assay (CTG); details: 144 hours
Procedure: Mero14 cells were trypsinised, counted and plated at 400 cells/well in 200 μl of growth media in 96 well flat bottom tissue culture treated plates. The plated cells were incubated overnight at 37° C., 5% CO2 before being treated with compounds in triplicate for each assay point. 50 μl of the serially diluted compound was added to each well giving a final DMSO concentration of 0.5% per well and a total volume of 250 μl per well. The treated cells were incubated for 144 hours (6 days) at 37° C., 5% CO2. Following compound treatment the remaining viable cells were detected using the Promega CellTiter-Glo 2.0 assay as follows: 150 μl of media was removed from each of the wells to be assayed and 100 μl of room temperature CellTiter-Glo 2.0 reagent was added. The plate was placed on an orbital shaker at 500 rpm at room temperature for 2 minutes, and then incubated without shaking for a further 10 minutes at room temperature. 150 μl of cell lysate was removed from each well and dispensed into a single well of a white opaque 96 well plate. Luminescence at 545 nm was read using a BMG CLARIOstar plate reader. The luminescent signal was directly proportional to number of viable cells, the percent of viable cells relative to the DMSO control was then calculated for each assay point. Percent viability relative to DMSO control is plotted against compound concentration and a curve fitted with non-linear regression in GraphPad Prism software. EC50 and absolute IC50 values were calculated using GraphPad Prism software as follows: For EC50 values, a non-constrained four-parameter logistic curve fit was used (Sigmoidal, 4PL, X is concentration). For Absolute IC50 values the baseline was constrained to Y=0 and top at 100 (Absolute IC50, X is concentration). Area Under the Curve (AUC): Prism computed area-under-the-curve by the trapezoidal method. The analysis sees a fitted curve as simply a series of connected XY points. Prism simply computes the area under the “curve” defined by connecting the points by straight lines. The units of the AUC are the units of the Y axis times units of the X axis.
(§1) For EC50 data, the symbol “A” indicates a value of less than 0.2 μM; the symbol “B” indicates a value in the range of from 0.2 μM up to 1 μM; and the symbol “C” indicates a value of greater than 1 μM.

MSTO-211H cells = test: MSTO-211H proliferation and cell viability assay (CTG); details: Homo sapiens, 144 hours
Procedure: MSTO-211H cells were trypsinised, counted and plated at 1500 cells/well in 200 μl of growth media in 96 well flat bottom tissue culture treated plates. The plated cells were incubated overnight at 37° C., 5% CO2 before being treated with compounds in triplicate for each assay point. 50 μl of the serially diluted compound was added to each well giving a final DMSO concentration of 0.5% per well and a total volume of 250 μl per well. The treated cells were incubated for 144 hours (6 days) at 37° C., 5% CO2. Following compound treatment, the remaining viable cells were detected using the Promega CellTiter-Glo 2.0 assay as follows: 150 μl of media was removed from each of the wells to be assayed and 100 μl of room temperature CellTiter-Glo 2.0 reagent was added. The plate was placed on an orbital shaker at 500 rpm at room temperature for 2 minutes, and then incubated without shaking for a further 10 minutes at room temperature. 150 μl of cell lysate was removed from each well and dispensed into a single well of a white opaque 96 well plate. Luminescence at 545 nm was read using a BMG CLARIOstar plate reader. The luminescent signal was directly proportional to number of viable cells, the percent of viable cells relative to the DMSO control was then calculated for each assay point. Percent viability relative to DMSO control was plotted against compound concentration and a curve fitted with non-linear regression in GraphPad Prism software. EC50 and absolute IC50 values were calculated using GraphPad Prism software as follows: For EC50 values a non-constrained four-parameter logistic curve fit was used (Sigmoidal, 4PL, X is concentration). For Absolute IC50 values the baseline was constrained to Y=0 and top at 100 (Absolute IC50, X is concentration). Area Under the Curve (AUC): Prism computes area-under-the-curve by the trapezoidal method. The analysis sees a fitted curve as simply a series of connected XY points. Prism simply computes the area under the “curve” defined by connecting the points by straight lines. The units of the AUC are the units of the Y axis times units of the X axis.
as §1

LOU-NH91 cells = test: LOU-NH91 proliferation and cell viability assay (CTG); details: 216 hours
Procedure: LOU-NH91 cells were trypsinised, counted and plated at 1000 cells/well in 200 μl of growth media in 96 well flat bottom tissue culture treated plates. The plated cells were incubated overnight at 37° C., 5% CO2 before being treated with compounds in triplicate for each assay point. 50 μl of the serially diluted compound was added to each well giving a final DMSO concentration of 0.5% per well and a total volume of 250 μl per well. The treated cells were incubated for 216 hours (9 days) at 37° C., 5% CO2. Following compound treatment, the remaining viable cells were detected using the Promega CellTiter-Glo 2.0 assay as follows: 150 μl of media was removed from each of the wells to be assayed and 100 μl of room temperature CellTiter-Glo 2.0 reagent was added. The plate was placed on an orbital shaker at 500 rpm at room temperature for 2 minutes, and then incubated without shaking for a further 10 minutes at room temperature. 150 μl of cell lysate was removed from each well and dispensed into a single well of a white opaque 96 well plate. Luminescence at 545 nm was read using a BMG CLARIOstar plate reader. The luminescent signal was directly proportional to number of viable cells, the percent of viable cells relative to the DMSO control was then calculated for each assay point. Percent viability relative to DMSO control was plotted against compound concentration and a curve fitted with non-linear regression in GraphPad Prism software. EC50 and absolute IC50 values were calculated using GraphPad Prism software as follows: For EC50 values a non-constrained four-parameter logistic curve fit was used (Sigmoidal, 4PL, X is concentration). For Absolute IC50 values the baseline was constrained to Y=0 and top at 100 (Absolute IC50, X is concentration). Area Under the Curve (AUC): Prism computes area-under-the-curve by the trapezoidal method. The analysis sees a fitted curve as simply a series of connected XY points. Prism simply computes the area under the “curve” defined by connecting the points by straight lines. The units of the AUC are the units of the Y axis times units of the X axis. […]

SMILES | EC50 (Mero14 cells) [nM] | EC50 (MSTO-211H cells) [nM] | EC50 (LOU-NH91 cells) [nM]
Cn1nnc(-c2cc([C@]3(C)CCNC3=O)ccc2Nc2ccc(C(F)(F)F)cc2)n1 (stereo in doubt) [Compound 20, 3-methyl-3-(3-(2-methyl-2H-tetrazol-5-yl)-4-((4-(trifluoromethyl)phenyl)amino)phenyl) pyrrolidin-2-one] | < 200 | < 200 | –
FC(F)(F)c1ccc(CN2CCC(C3CC(Br)=NO3)CC2)cc1 (stereo not shown) [Compound 1-2, reference compound] | 200 to 1000 | < 200 | < 200
Cn1cnc(-c2cc(C3(C)NC(=O)NC3=O)ccc2Nc2ccc(C(F)(F)F)cc2)c1 (single isomer, unassigned) [Compound 15, 5-methyl-5-(3-(1-methyl-1H-imidazol-4-yl)-4-((4-(trifluoromethyl)phenyl)amino)phenyl)imidazolidine-2,4-dione] | < 200 | < 200 | –
Cn1cnc(-c2cc([C@@]3(C)CCNC3=O)ccc2Nc2ccc(C(F)(F)F)cc2)c1 (single isomer, unassigned) [Compound 5, 3-methyl-3-(3-(1-methyl-1H-imidazol-4-yl)-4-((4-(trifluoromethyl)phenyl)amino)phenyl)pyrrolidin-2-one] | < 200 | < 200 | < 200
C=CC(=O)Nc1ccc(C)c(Oc2ccc(Cl)cc2)c1 [Compound 1-3, reference compound] | < 200 | < 200 | < 200
